Data taken from PMC13286573, “Exploration of precision coregulator TR-FRET identifies diverse signatures for LXR ligands relevant to discovery of nonlipogenic ABCA1 inducers” (eLife, 2026).
“Also recorded” adds a separate entry of the source.

How the values were obtained:
[1] = biological target: T1, LXRβ (Homo sapiens, UniProt P55055); assay: NCOR2 corepressor binding to LXRβ, CRT; format: biochemical; parameters: The CRT selectivity assay incorporates GST-tagged LXR-LBD; purchased Thermo Fisher Scientific PV4660; details: read-out: NCOR2β, relative % activity at 1 μM
T1 sequence (P55055 222-460 limits assumed): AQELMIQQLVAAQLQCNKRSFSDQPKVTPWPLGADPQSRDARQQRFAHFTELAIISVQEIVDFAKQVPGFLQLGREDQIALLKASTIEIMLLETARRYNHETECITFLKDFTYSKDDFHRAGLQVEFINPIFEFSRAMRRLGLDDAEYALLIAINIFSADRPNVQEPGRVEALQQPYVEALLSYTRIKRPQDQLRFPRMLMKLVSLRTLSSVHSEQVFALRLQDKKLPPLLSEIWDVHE

[2] = tested on: LXR; assay: Categorization of ligands by CRT/pCRT signature; format: biochemical; details: response at 1 µM ligand compared with theoretical signatures
From the text: With the knowledge that, in pCRT, corepressors bind to the apo-receptor; whereas coactivator binding requires a ligand-induced conformational change, we can categorize all ligands using their CRT profiles. Ligands induce three LXR conformational ensembles with CoR (destabilizing D, stabilizing S, neutral N) and only two conformations with CoA (stabilizing S, neutral N) (Figure 9 (Table 1)). In categorizing ligands based upon these CRT characteristics, labels are needed.
The category for each ligand is not always identical for LXRα vs. LXRβ. Similarly, the phenotype associated with each classification is isoform dependent. Recruitment of CoA to LXRβ by FA, WA, and PA will activate transcription; whereas, lack of recruitment by SA, HA, and RA will antagonize transcription (Figure 9 (Table 1)). Stabilization of CoA and/or destabilization of CoR bound to LXRα is a derepression mechanism leading to activation/transcription for FA, WA, and RA; whereas partial activation is expected for PA.
To determine which LXR ligands fit with these theoretical CRT signatures, concentration-response curves were interpolated to measure normalized response at 1 µM ligand concentration and plotted as a heat map (Figure 9A).

[3] = tested on: sterol response element (SRE); assay: SRE-luc reporter assay in HepG2 cells; format: cell-based, human
Method in brief: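 HepG2 cells stably carrying an SRE (LDLR) promoter–NlucP reporter, grown in medium with charcoal-stripped FBS. Treated with compounds for 24 hr at 37 °C, then lysed and nanoluciferase luminescence read.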

[4] = tested on: mouse model of non-alcoholic steatohepatitis (NASH); parameters: method as in Griffett et al., 2015; Griffett and Burris, 2016; details: ref Griffett et al., 2015; Griffett and Burris, 2016; cited from earlier work
[5] = tested on: obese mice on HFD; parameters: method as in Griffett et al., 2015; details: ref Griffett et al., 2015; cited from earlier work
[6] = biological target: T2, LXRα (Homo sapiens, UniProt Q13133); details: in the absence of agonist
T2 sequence (Q13133 209-447 limits assumed): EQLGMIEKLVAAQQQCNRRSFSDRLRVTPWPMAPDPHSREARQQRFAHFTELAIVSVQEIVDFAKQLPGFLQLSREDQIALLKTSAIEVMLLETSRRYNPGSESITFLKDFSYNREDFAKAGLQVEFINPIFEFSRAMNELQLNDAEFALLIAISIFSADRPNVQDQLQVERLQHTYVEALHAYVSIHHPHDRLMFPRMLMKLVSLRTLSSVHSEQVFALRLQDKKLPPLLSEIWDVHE

[7] = biological target: T1, LXRβ; details: in the absence of agonist

Row | SMILES | activity at 1 µM [1] [%] | CRT/pCRT signature category [2] | SRE activation response/phenotype in HepG2 [3] | Hepatic effects in NASH mouse model [4] | Plasma TG [5] | Coactivator recruitment to LXRα [6] | Coactivator recruitment to LXRβ [7]
1 | Cc1cc(C)c(S(=O)(=O)N(Cc2ccc(-c3cccc(S(C)(=O)=O)c3)cc2)Cc2ccc(C(F)(F)F)o2)c(C)c1 [GSK2033] | 57.7 | HA (hard antagonist (HA)) | neutral or antagonist response | no beneficial effects on hepatic steatosis | – | – | –
2 | CCOC(=O)c1ccc(CN(Cc2ccc(-c3cccc(S(C)(=O)=O)c3)cc2)S(=O)(=O)c2c(C)cc(C)cc2C)o1 [SR9238] | 21.9 | RA (reverse agonist (RA)) | lowered SRE activation below baseline; also recorded: neutral or antagonist response; also recorded: inverse agonist at <3 µM concentration | significantly reduced hepatic inflammation and fibrosis | plasma TG was suppressed | unable to recruit coactivators to LXRα | very weakly supported coactivator recruitment to LXRβ
